Values quoted from earlier work as cited in patent publication US20110262540A1, “Solid Pharmaceutical Composition Comprising Exemestane” (ARROW INTERNATIONAL LIMITED, priority 2008, published 2011).

Structure (SMILES): C=C1C[C@@H]2[C@H](CC[C@]3(C)C(=O)CC[C@@H]23)[C@@]2(C)C=CC(=O)C=C12 [Exemestane, 6-methylenandrosta-1,4-diene-3,17-dione]
- Solubility in water: practically insoluble in water
